For one data set, the system named is VCaP xenografts. The experiment in a line: VCaP mouse xenograft model. It is filed as in vivo, mice. From the text: (§1) Olaparib was obtained from Axon Medchem (Groningen, The Netherlands).
Data set [1] deals with PC3 model overexpressing T2:ERG. The experiment in a line: γH2A.X foci after radiation (DNA double strand break repair), isogenic PC3 model. In kind it is cell-based. The settings on record: PC3, pre-treated with 10 μM Olaparib, then radiation. As to the method:
(§2) The effect of ETS overexpression on repair of DNA double strand breaks was assayed. Isogenic PC3 and DU145 models, respectively, overexpressing either T2:ERG or ERG with a deleted ETS domain were pre-treated with or without 10 μM Olaparib and then treated with radiation. Immunofluorescence staining of γH2A.X foci was used to assess total levels of DNA damage and repair rate. The number of cells with >10 γH2A.X foci were quantified at each time point as indicated. Representative photomicrographs were taken 24 hours after treatment using an Olympus confocal microscope with a 100× Oil objective. All experiments were run in triplicate. Error bars are standard error of the mean.

In data set [2] the test system is DU145 model overexpressing T2:ERG. The experiment in a line: γH2A.X foci after radiation (DNA double strand break repair), isogenic DU145 model. It is filed as cell-based. The settings on record: DU145, pre-treated with 10 μM Olaparib, then radiation. As to the method: as §2
Data set [3] in a line: Body weight of xenografted mice. In kind it is in vivo. The note with it: xenograft and primagraft models, Olaparib treatment. As to the method:
as §1
Human prostate cancer specimens MDA-PCa 2b-T (ETV1 positive), MDA-PCa-133 (ERG positive) and MDA PCa 118b (ETS-negative) were obtained (Li, Z. G., et al. The Journal of clinical investigation 118, 2697-2710 (2008)). Each xenografted tumor tissue was aseptically harvested from the host mice. New recipient mice were anesthetized by injecting […] intraperitoneally for chemical restraint before tumor implantation. About 0.5 cm^3 size of the excised tumor tissue was directly implanted into subcutaneous pockets of 6- to 8-week-old male CB17 SCID mice (Charles River Laboratories) in a laminar flow sterile hood. Sub-cutaneous pocket was carefully closed by applying 1 or 2 wound clips. All mice were monitored for 24 hours after implantation procedure for any apparent physiologic disturbances or missing wound clips. Olaparib (40 mg/Kg body weight) treatment was started after 72 hours. […] Body weight was also monitored weekly during the course of the study.

For data set [4], the system named is RWPE cells stably overexpressing ETV1. The experiment in a line: Basement membrane matrix invasion assay, RWPE-ETV1 cells. In kind it is cell-based, human. The note with it: P<0.01 for all PARP1 or DNA-PKcs treatments. As to the method: For invasion assays, the prostate cell lines RWPE-1 and VCaP were transfected with siRNA or negative controls as indicated. NU7026 (Sigma) and NU1025 (Calbiochem) were dissolved in DMSO and stored at −20° C. in the dark. Forty-eight hours post-transfection/transduction, cells were seeded onto the basement membrane matrix (EC matrix, Chemicon, Temecula, Calif.) in the chamber insert with […] pores of a 24-well culture plate in serum free media. Cells were attracted to the lower chamber by the addition of complete media as a chemoattractant. After 48 hours incubation at 37° C. with 5% CO2, the non-invading cells and EC matrix were gently removed with a cotton swab. Invasive cells, which were located on the lower side of the membrane, were stained with crystal violet, air dried and photographed. To quantify the relative number of invaded cells, colorimetric assays were performed by treating the inserts with 150 μl of 10% acetic acid (v/v) and measuring absorbance of each condition at 560 nm using a spectrophotometer (GE Healthcare).

Data set [5] has as its system Ewing's sarcoma cell lines. The experiment in a line: Ewing's sarcoma cell lines: soft agar colony formation and neutral COMET assays. It is filed as cell-based. The note with it: with or without 10 μM Olaparib for 48 hours (COMET); soft agar colony formation. As to the method: The effect of PARP1 inhibitors on Ewing's sarcoma cell lines was assayed. CADO-ES1 or RD-ES1 cells were treated with siRNA for 48 hours. Cells were then harvested and plated in a transwell migration assay. Forty eight hours later, cells were stained with crystal violet and the total number or invaded cells was quantified. Soft agar colony formation was performed on cells treated with or without Olaparib. Neutral COMET assays were performed on a panel of Ewing's Sarcoma cell lines. PC3 was used as an ETS negative control and PC3-ERG for comparison to an ETS positive model. Cells were treated with or without 10 μM Olaparib for 48 hours. D) As in C, except cells were pre-treated with siRNA for 48 hours. All experiments were run in triplicate. Error bars are standard error of the mean.

A further data set has as its system 22RV1 xenografts. The experiment in a line: 22RV1 mouse xenograft model. It is filed as in vivo, mice. The note with it: 22RV1 (ETS negative), Olaparib.
Excerpt: as §1

Entries after “also recorded” stand apart in the source; their conditions may differ.

Take `O=C(c1cc(Cc2n[nH]c(=O)c3ccccc23)ccc1F)N1CCN(C(=O)C2CC2)CC1` [Olaparib, 4-[3-(4-Cyclopropanecarbonylpiperazine-1-carbonyl)-4-fluorobenzyl]-2H-phthalazin-1-one]: the “dose dependence of VCaP tumor growth response” value in the data set with VCaP xenografts (Olaparib) is on record as “dose dependent”. Further, the “tumor growth relative to the vehicle control” value with VCaP xenografts (VCaP, Olaparib 40 mg/kg/day IP (P=0.001), NU7026 25 mg/kg/day IP (p=0.004)) is given as “significant reduction of tumor growth”. For the same molecule, the “ERG-enhanced DNA DSB damage repair (γH2A.X foci)” value in data set [1] and in data set [2] was “blocked; also recorded: reversed by PARP inhibition” each time. Moreover, the total body weight entry in data set [3] is given as “did not lead to a significant decrease in total body weight; also recorded: did not have an observable effect on total body weight; also recorded: does not reduce total mouse body weight”. Moreover, the ETV1-mediated invasion result in data set [4] is “does now effect invasion”. Further, the “sensitivity of Ewing's sarcoma cell lines” value in data set [5] is recorded as “sensitive to PARP1; also recorded: sensitive to PARP inhibition”. In addition, the xenograft growth entry in the data set with 22RV1 xenografts is reported as “not responsive; also recorded: did not inhibit the growth”.
